Legend:
FGFR1 = test: Millipore kinase assay, radiolabelled phosphopeptide filter binding, IC50 estimate; type: biochemical; conditions: estimated from inhibition at three compound concentrations; ATP at the Km
Method: (§1) Kinase assays at Millipore were performed using a radiolabelled phosphopeptide filter binding detection system, in duplicate, at each compound concentration. The ATP substrate concentration in the reactions was at the Km for each enzyme.
(§2) To allow for a more direct comparison of compound inhibition, an IC50 value was estimated from the inhibition determined at three compound concentrations. Several assumptions were made to allow this calculation using a 4 parameter non linear curve fit model, including full inhibition set at 100%, no inhibition set to 0%, and a curve fit parameter set at 1. The inflection point was reported as the estimated IC50.

FLT-1 = biological target: T1, FLT-1 (Homo sapiens, UniProt P17948); test: as above; type: biochemical; conditions: estimated from inhibition at three compound concentrations; ATP at the Km
T1 construct: purchased Millipore (assay service)
T1 sequence (P17948 27-1338): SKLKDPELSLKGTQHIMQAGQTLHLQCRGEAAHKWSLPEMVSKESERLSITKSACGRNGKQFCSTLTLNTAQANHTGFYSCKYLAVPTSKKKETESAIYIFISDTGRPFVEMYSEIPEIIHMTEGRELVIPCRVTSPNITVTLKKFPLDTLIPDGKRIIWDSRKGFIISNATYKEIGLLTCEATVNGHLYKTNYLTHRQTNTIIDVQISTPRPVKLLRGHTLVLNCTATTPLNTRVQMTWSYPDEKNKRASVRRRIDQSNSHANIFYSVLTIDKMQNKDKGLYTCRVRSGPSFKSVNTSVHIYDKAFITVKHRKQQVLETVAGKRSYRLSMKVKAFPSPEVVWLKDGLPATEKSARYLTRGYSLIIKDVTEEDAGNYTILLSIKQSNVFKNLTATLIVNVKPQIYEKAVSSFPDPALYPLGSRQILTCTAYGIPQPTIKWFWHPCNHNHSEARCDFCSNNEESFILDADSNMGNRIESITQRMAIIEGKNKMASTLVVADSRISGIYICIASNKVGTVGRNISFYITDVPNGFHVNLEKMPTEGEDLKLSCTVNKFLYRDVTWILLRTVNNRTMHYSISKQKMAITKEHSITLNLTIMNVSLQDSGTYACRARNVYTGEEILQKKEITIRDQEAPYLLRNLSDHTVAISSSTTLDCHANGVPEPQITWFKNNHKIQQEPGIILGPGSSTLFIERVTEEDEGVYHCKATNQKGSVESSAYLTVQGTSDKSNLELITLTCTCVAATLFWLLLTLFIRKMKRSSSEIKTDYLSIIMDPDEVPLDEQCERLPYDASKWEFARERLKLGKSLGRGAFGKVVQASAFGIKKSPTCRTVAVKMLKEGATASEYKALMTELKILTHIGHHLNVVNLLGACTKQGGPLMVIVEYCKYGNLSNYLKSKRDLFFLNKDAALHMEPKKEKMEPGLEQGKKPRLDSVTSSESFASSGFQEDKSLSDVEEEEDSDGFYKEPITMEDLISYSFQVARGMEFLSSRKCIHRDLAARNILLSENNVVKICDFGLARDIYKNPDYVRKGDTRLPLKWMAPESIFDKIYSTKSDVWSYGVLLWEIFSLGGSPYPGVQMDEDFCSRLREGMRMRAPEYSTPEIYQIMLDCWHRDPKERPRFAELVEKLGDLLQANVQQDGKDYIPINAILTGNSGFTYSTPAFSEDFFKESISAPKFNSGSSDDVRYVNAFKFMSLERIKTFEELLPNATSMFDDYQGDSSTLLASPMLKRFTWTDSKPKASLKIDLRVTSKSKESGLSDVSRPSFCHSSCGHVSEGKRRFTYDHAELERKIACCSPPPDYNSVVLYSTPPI
Method: as §1, §2

PDGFRβ = biological target: T2, PDGFRβ (Homo sapiens, UniProt P09619); test: as above; type: biochemical; conditions: estimated from inhibition at three compound concentrations; ATP at the Km
T2 construct: purchased Millipore (assay service)
T2 sequence (P09619 33-1106): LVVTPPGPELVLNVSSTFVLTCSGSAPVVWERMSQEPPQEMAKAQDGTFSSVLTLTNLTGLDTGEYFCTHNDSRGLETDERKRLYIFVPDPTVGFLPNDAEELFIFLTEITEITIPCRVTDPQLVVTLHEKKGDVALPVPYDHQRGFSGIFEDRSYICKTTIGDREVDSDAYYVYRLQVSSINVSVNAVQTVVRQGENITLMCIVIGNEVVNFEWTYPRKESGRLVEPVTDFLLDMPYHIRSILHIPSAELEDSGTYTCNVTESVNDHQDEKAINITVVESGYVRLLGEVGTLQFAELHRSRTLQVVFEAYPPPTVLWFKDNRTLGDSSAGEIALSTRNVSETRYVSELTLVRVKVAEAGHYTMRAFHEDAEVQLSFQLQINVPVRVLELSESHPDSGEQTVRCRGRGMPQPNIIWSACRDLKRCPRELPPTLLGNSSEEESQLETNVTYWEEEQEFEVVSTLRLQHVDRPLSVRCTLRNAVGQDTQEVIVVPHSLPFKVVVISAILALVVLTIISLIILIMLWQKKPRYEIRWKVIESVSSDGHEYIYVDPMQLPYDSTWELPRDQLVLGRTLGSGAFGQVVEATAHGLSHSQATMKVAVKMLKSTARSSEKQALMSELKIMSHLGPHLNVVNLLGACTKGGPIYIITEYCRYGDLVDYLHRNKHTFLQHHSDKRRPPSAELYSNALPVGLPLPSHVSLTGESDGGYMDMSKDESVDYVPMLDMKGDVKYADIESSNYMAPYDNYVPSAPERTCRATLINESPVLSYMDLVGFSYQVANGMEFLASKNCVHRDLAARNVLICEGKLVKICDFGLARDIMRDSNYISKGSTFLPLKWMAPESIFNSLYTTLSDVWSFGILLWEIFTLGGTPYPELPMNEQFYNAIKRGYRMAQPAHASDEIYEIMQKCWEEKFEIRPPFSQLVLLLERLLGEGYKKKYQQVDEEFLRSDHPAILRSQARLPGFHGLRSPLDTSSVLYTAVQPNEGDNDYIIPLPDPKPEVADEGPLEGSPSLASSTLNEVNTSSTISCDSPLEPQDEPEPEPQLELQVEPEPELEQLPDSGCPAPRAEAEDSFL
Method: as §1, §2

AMPKa = test: Kinase Selectivity Assay (CEREP, HTRF); type: biochemical, human
Method: (§3) kinase, ROCK2, RSK2, Src kinase, Syk, and TRKA. The % Inhibition was determined

CaMK4 = biological target: T3, CaMK4 (Homo sapiens, UniProt Q16566); test: Kinase Selectivity Assay (CEREP, HTRF); type: biochemical; conditions: read-out: % Inhibition at 10 μM Concentration, CaMK4
T3 construct: CEREP, France (ran the assays)
T3 sequence (Q16566 1-473): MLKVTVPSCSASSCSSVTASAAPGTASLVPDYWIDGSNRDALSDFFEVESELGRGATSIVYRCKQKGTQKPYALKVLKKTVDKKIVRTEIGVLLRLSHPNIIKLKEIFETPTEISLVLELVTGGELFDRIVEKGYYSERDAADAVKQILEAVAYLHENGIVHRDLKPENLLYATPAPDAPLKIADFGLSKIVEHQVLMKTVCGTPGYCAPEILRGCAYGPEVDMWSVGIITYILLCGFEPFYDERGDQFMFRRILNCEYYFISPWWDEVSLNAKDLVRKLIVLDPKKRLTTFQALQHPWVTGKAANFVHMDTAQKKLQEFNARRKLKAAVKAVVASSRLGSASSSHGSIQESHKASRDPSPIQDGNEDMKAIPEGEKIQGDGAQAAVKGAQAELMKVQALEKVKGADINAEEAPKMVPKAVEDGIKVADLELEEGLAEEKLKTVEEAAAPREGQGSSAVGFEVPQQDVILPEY
Method: as §3

518A2 melanoma cell line = test: Cell growth inhibition, SRB assay, extended panel; type: cell-based; conditions: Homo sapiens, read-out: GI50 Range, 518A2
Method: (§4) Breast cancer cells (MCF-7, MDA-MB-468, HCC1954), colon cancer cells (SW620) and lung cancer cells (A549), together with human mammary epithelial primary cells (HMEC), were seeded (1000 to 4000 per 80 μl per well depending on the cell growth rate) into 96 well plates, 24 hours before compound overlay. Compounds were prepared as 10 mM stock solutions in 100% DMSO which were diluted with DMEM (Dulbecco's Modified Eagle's Medium) cell growth Medium (Invitrogen, Burlington, ON, Canada) containing 10% FBS (Fetal Bovine Serum) to concentrations ranging from 50 nM to 250 μM. Aliquots (20 μl) from each concentration were overlaid to 80 μl of the pre-seeded cells in the 96 well plates to make final concentrations of 10 nM to 50 μM. The cells were cultured for 5 days before the Sulforhodamine B assay (SRB) was performed to determine the compound's cell growth inhibition activity.
(§5) Sulforhodamine B (purchased from Sigma, Oakville, ON, Canada) is a water-soluble dye that binds to the basic amino acids of the cellular proteins. Thus, colorimetric measurement of the bound dye provides an estimate of the total protein mass that is related to the cell number. the cells are fixed in situ by gently aspirating off the culture media and adding 50 μl ice cold 10% Tri-chloroacetic Acid (TCA) per well and incubate at 4° C. for 30-60 min, The plates are washed with water five times and allowed to air dry for 5 min. Addition of 50 μl 0.4% (w/v) SRB solution in 1% (v/v) acetic acid to each well and incubatation for 30 min at RT completes the staining reaction. Following staining, plates are washed four times with 1% acetic acid to remove unbound dye and then allowed to air dry for 5 min. The stain is solubilized with 100 μl of 10 mM Tris pH10.5 per well. Absorbance is read at 570 nm.
(§6) The percentage (%) of relative growth inhibition was calculated by comparing to DMSO treated only cells (100%). GI50's were determined for compounds with cytotoxic activity. The GI50 was calculated using GraphPad PRISM software (GraphPad Software, Inc., San Diego, Calif., USA).
(§7) In addition to the cell lines tested as described above, selected compounds have been assayed against an extended panel. […] The sulforhodamine B assay (SRB) described above was use to assay test compounds against the extended panel (Table 9).

[1] = system: A172 brain cancer cell line; test: Cell growth inhibition, SRB assay, extended panel; type: cell-based; conditions: Homo sapiens, A 172, read-out: GI50 Range, A172
Method: as §4, §5, §6, §7

[2] = system: BT474 breast cancer cell line; test: Cell growth inhibition, SRB assay, extended panel; type: cell-based; conditions: Homo sapiens, BT-474, read-out: GI50 Range, BT474
Method: as §4, §5, §6, §7

[3] = system: Colo 205 colon cancer cell line; test: Cell growth inhibition, SRB assay, extended panel; type: cell-based; conditions: Homo sapiens, read-out: GI50 Range, Colo 205
Method: as §4, §5, §6, §7

[4] = system: H358 lung cancer cell line; test: Cell growth inhibition, SRB assay, extended panel; type: cell-based; conditions: Homo sapiens, NCI-H358, read-out: GI50 Range, H358
Method: as §4, §5, §6, §7

[5] = system: HCT116+/+ colon cancer cell line; test: Cell growth inhibition, SRB assay, extended panel; type: cell-based; conditions: Homo sapiens, HCT-116, read-out: GI50 Range, HCT116+/+
Method: as §4, §5, §6, §7

[6] = system: HCT116+/− colon cancer cell line; test: Cell growth inhibition, SRB assay, extended panel; type: cell-based; conditions: Homo sapiens, HCT-116, read-out: GI50 Range, HCT116+/−
Method: as §4, §5, §6, §7

[7] = system: OVCAR-3 ovarian cancer cell line; test: Cell growth inhibition, SRB assay, extended panel; type: cell-based; conditions: Homo sapiens, read-out: GI50 Range, OVCAR-3
Method: as §4, §5, §6, §7

[8] = system: SK-N-SH brain cancer cell line; test: Cell growth inhibition, SRB assay, extended panel; type: cell-based; conditions: Homo sapiens, read-out: GI50 Range, SK-N-SH
Method: as §4, §5, §6, §7

[9] = system: SK-OV-3 ovarian cancer cell line; test: Cell growth inhibition, SRB assay, extended panel; type: cell-based; conditions: Homo sapiens, read-out: GI50 Range, SK-OV-3
Method: as §4, §5, §6, §7

[10] = system: SKBR3 breast cancer cell line; test: Cell growth inhibition, SRB assay, extended panel; type: cell-based; conditions: Homo sapiens, SK-BR-3, read-out: GI50 Range, SKBR3
Method: as §4, §5, §6, §7

[11] = system: T47 D breast cancer cell line; test: Cell growth inhibition, SRB assay, extended panel; type: cell-based; conditions: Homo sapiens, T47D; SRB, extended panel; read-out: GI50 Range, T47 D
Method: as §4, §5, §6, §7

| Structure (SMILES) | IC50 (FGFR1) [µM] | IC50 (FLT-1) [µM] | IC50 (PDGFRβ) [µM] | % Inhibition at 10 μM Concentration, AMPKalpha (AMPKa) [%] | inhibition at 10 µM (CaMK4) [%] | GI50 (518A2 melanoma cell line) [µM] | GI50 [1] [µM] | GI50 [2] [µM] | GI50 [3] [µM] | GI50 [4] [µM] | GI50 [5] [µM] | GI50 [6] [µM] | GI50 [7] [µM] | GI50 [8] [µM] | GI50 [9] [µM] | GI50 [10] [µM] | GI50 [11] [µM] |
| --- | --- | --- | --- | --- | --- | --- | --- | --- | --- | --- | --- | --- | --- | --- | --- | --- | --- |
| CN(C)Cc1ccc(/C=C/c2n[nH]c3cc(C=C4C(=O)Nc5ccccc54)ccc23)cc1 (mixture of isomers) [Example A106, (E and Z)-3-[(3-{(E)-2-[4-((dimethylamino)methyl)-phenyl]-ethenyl}-1H-indazol-6-yl)methylidene]-1,3-dihydro-2H-indol-2-one 2,2,2-trifluoroacetate] | < 5 | < 5 | < 5 | – | – | – | – | – | – | – | – | – | – | – | – | – | – |
| O=C1Nc2ccccc2/C1=C\c1ccc2c(/C=C/c3ccccc3Cl)n[nH]c2c1 [Example A60, (E)-3-((3-((E)-2-chlorostyryl)-1H-indazol-6-yl)methylene)indolin-2-one] | – | – | – | 8 | -15 | – | – | – | – | – | – | – | – | – | – | – | – |
| O=C1Nc2ccccc2C1=Cc1ccc2c(/C=C/c3ccccn3)n[nH]c2c1 (mixture of isomers) [Example A41, (E and Z)-3-((3-((E)-2-(pyridin-2-yl)vinyl)-1H-indazol-6-yl)methylene)indolin-2-one] | < 5 | < 5 | < 5 | 81 | 27 | < 5 | < 5 | > 50 | < 5 | < 5 | > 50 | > 50 | > 50 | < 5 | > 50 | < 5 | < 5 |
| COc1ccc2c(c1)C(=Cc1ccc3c(-c4ccc(N5CCN(C)CC5)nc4)n[nH]c3c1)C(=O)N2 (mixture of isomers) [Example A97, (E and Z)-5-methoxy-3-((3-(6-(4-methylpiperazin-1-yl)pyridin-3-yl)-1H-indazol-6-yl)methylene)indolin-2-one] | < 5 | < 5 | 5 to 50 | 76 | 2 | – | – | < 5 | < 5 | – | < 5 | < 5 | – | – | – | < 5 | < 5 |
| O=C1Nc2ccccc2/C1=C\c1ccc2[nH]nnc2c1 [Example A1, (E)-3-((1H-benzo[d][1,2,3]triazol-5-yl)methylene)indolin-2-one] | – | – | – | 15 | 3 | – | – | – | – | – | – | – | – | – | – | – | – |
| O=C1Nc2ccccc2/C1=C\c1ccc2cn[nH]c2c1 [Example A5, (E)-3-((1H-indazol-6-yl)methylene)indolin-2-one] | – | – | – | 54 | 26 | – | – | – | – | – | – | – | – | – | – | – | – |
| O=C1Nc2ncc(Br)cc2C1=Cc1ccc2c(/C=C/c3ccncc3)n[nH]c2c1 (mixture of isomers) [Example A109, (E and Z)-5-bromo-3-((3-((E)-2-(pyridin-4-yl)vinyl)-1H-indazol-6-yl)methyl-ene)-1H-pyrrolo[2,3-b]pyridin-2(3H)-one] | – | – | – | – | – | < 5 | < 5 | 5 to 20 | < 5 | < 5 | < 5 | < 5 | < 5 | < 5 | 5 to 20 | > 50 | < 5 |
| CN1CCN(c2ccc(/C=C/c3n[nH]c4cc(C=C5C(=O)Nc6ccccc65)ccc34)cn2)CC1 (mixture of isomers) [Example A108, (E and Z)-3-((3-((E)-2-(6-(4-methylpiperazin-1-yl)pyridin-3-yl)vinyl)-1H-indazol-6-yl)methylene)indolin-2-one] | – | – | – | – | – | < 5 | < 5 | < 5 | < 5 | < 5 | < 5 | < 5 | < 5 | < 5 | < 5 | < 5 | < 5 |
